This passage reports IC50 and GI50 results from patent US20250018047A1, “METHODS AND COMPOSITIONS FOR TARGETED PROTEIN DEGRADATION” (Ranok Therapeutics (Hangzhou) Co. Ltd., priority 2021, published 2025).

One assay deals with T1, KRAS(G12D)/SOS1 (Homo sapiens, UniProt P01116, G12D).
T1 construct: purchased Cisbio 63ADK000CB16PEG
The assay can be described thus: KRAS(G12D)/SOS1 homogeneous time-resolved fluorescence (HTRF) assay. Conditions: absence of GTP, 4° C. for 3 hr. The class given is binding. How it is done:
The test compound was mixed and incubated with reaction components, incubated in a sealed plate at 4° C. for 3 hr and fluorescence was measured using a PerkinElmer Envision plate reader.
(In general: In TR-FRET formats the signal depends on donor and acceptor labels being close together.)

Assay [1] deals with AsPC-1 human pancreatic adenocarcinoma. The assay can be described thus: CellTiter-Glo cancer cell line proliferation assay, AsPC-1. Conditions: Homo sapiens, ASPC1, 24 hr. In kind it is cell-based. An outline of the steps: (§1)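 Cells plated at 4,000/well, grown 24 h at 37 °C/5% CO2, then exposed to compound concentration series (0.5% DMSO final) for 24 h. Viability read by CellTiter-Glo luminescence; IC50 values calculated.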

Assay [2] has as its system A-427 human lung carcinoma. The assay can be described thus: CellTiter-Glo cancer cell line proliferation assay, A-427. In kind it is cell-based. Conditions: Homo sapiens, A-427, 24 hr, read-out: A427 at 24 hrs, IC50. The gist of the method:
as §1
In general terms: ATP-based viability assays read luminescence as a measure of living cells.

Assay [3] addresses BA/F3-KRAS(G12D) murine pro-B cell line stably expressing KRAS(G12D) (Homo sapiens, UniProt P01116, G12D, cells depend on it). The assay can be described thus: CellTiter-Glo cancer cell line proliferation assay, BA/F3-KRAS(G12D). In kind it is cell-based. Conditions: 24 hr, read-out: BAF3 at 24 hrs, IC50. How it is done:
The following cancer cell lines were employed: AsPC-1 human pancreatic adenocarcinoma (ATCC, #CRL-1682); A-427 human lung carcinoma (ATCC, #HTB-53); BA/F3-KRAS(G12D) murine pro-B cell line stably expressing KRAS(G12D) (Precedo, Hefei, China). Cell lines were cultured according to ATCC and recommendations. BA/F3-KRAS(G12D) cells were cultured in RPMI 1640 media with 10% fetal calf serum, 100 units/mL penicillin and […] streptomycin, and 1% glutamine.
CellTiter-Glo® Reagent Cancer Cell Line Proliferation Assays
Cells were plated in 96-well tissue culture plates at 4,000 cells/well and incubated at 37° C./5% CO2 for 24 hr in 100 μl of media. 3-fold serial dilutions of each test compound were prepared ranging from 20 μM to 1.02 nM. Cells were then treated with test compounds at various concentrations with a final concentration of 0.5% DMSO/well, and then incubated at 37° C./5% CO2 for 24 hr. 100 μl of CellTiter-Glo® Reagent (Promega Corporation, Madison, WI) was added to each well and processed according manufacturer's protocol. Results were analyzed and IC50-values were calculated in GraphPad 7 software.

pIC50: −log10 of the molar value. Counter-ions that a name gives are not always drawn. Bounds are passed on as bounds.

Sequence of BA/F3-KRAS(G12D) murine pro-B cell line stably expressing KRAS(G12D) (P01116 whole entry G12D): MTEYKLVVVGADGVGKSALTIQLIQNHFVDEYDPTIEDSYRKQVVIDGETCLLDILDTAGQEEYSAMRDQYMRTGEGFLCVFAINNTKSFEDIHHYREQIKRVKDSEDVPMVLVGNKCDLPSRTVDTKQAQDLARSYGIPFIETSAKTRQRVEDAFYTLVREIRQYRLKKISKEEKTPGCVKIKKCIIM
T1 sequence (P01116 1-188 isoform P01116-2 G12D): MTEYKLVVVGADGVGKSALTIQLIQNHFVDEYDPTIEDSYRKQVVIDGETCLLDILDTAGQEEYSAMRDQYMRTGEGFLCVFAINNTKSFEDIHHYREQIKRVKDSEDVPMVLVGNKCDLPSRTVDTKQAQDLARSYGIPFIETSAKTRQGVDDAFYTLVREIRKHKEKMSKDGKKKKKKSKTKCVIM

For orientation: pIC50 means the negative decadic logarithm of the IC50, by convention in mol/L. On to `CN1C[C@@H](N2CCC(C(=O)Nc3ccc4c(c3)C(=O)N(C3CCC(=O)NC3=O)C4=O)CC2)C[C@H]1COc1nc(N2CC3CCC(C2)N3)c2cnc(-c3cccc4cccc(Cl)c34)c(F)c2n1` (stereo partly drawn) [Compound 10, 1-((3S,5S)-5-(((4-(3,8-diazabicyclo[3.2.1]octan-3-yl)-7-(8-chloronaphthalen-1-yl)-8-fluoropyrido[4,3-d]pyrimidin-2-yl)oxy)methyl)-1-methylpyrrolidin-3-yl)-N-(2-(2,6-dioxopiperidin-3-yl)-1,3-dioxoisoindolin-5-yl)piperidine-4-carboxamide formate], for which the negative logarithm of the IC50 (pIC50) against KRAS(G12D)/SOS1 is more than 7.00; in assay [1], less than 6.00; in assay [2] it was less than 6.00. The GI50 in assay [3] is more than 1000 nM.

Turning to `CN1C[C@@H](N2CCC(C(=O)NCCOc3ccc4c(c3)C(=O)N(C3CCC(=O)NC3=O)C4=O)CC2)C[C@H]1COc1nc(N2CC3CCC(C2)N3)c2cnc(-c3cccc4ccccc34)c(F)c2n1` (stereo partly drawn) [Compound 22, 1-((3S,5S)-5-(((4-(3,8-diazabicyclo[3.2.1]octan-3-yl)-8-fluoro-7-(naphthalen-1-yl)pyrido[4,3-d]pyrimidin-2-yl)oxy)methyl)-1-methylpyrrolidin-3-yl)-N-(2-((2-(2,6-dioxopiperidin-3-yl)-1,3-dioxoisoindolin-5-yl)oxy)ethyl)piperidine-4-carboxamide formate], the negative-log IC50 (pIC50) (against KRAS(G12D)/SOS1; in assay [1]; in assay [2]) was less than 6.00 throughout. Further, the GI50 in assay [3] was more than 1000 nM.

Regarding `CN1C[C@@H](N2CCC(C(=O)NCCOc3ccc4c(c3)C(=O)N(C3CCC(=O)NC3=O)C4=O)CC2)C[C@H]1COc1nc(N2CC3CCC(C2)N3)c2cnc(-c3cccc4cccc(Cl)c34)c(F)c2n1` (stereo partly drawn) [Compound 12, 1-((3S,5S)-5-(((4-(3,8-diazabicyclo[3.2.1]octan-3-yl)-7-(8-chloronaphthalen-1-yl)-8-fluoropyrido[4,3-d]pyrimidin-2-yl)oxy)methyl)-1-methylpyrrolidin-3-yl)-N-(2-((2-(2,6-dioxopiperidin-3-yl)-1,3-dioxoisoindolin-5-yl)oxy)ethyl)piperidine-4-carboxamide hydrochloride], the negative logarithm of the IC50 (pIC50) is 6.00 to 7.00 on KRAS(G12D)/SOS1, less than 6.00 in assay [1] and less than 6.00 in assay [2]. For the same compound, the GI50 in assay [3] is more than 1000 nM.

With `Cc1ncsc1-c1ccc(CNC(=O)[C@@H]2C[C@@H](O)CN2C(=O)[C@@H](NC(=O)CCCNC(=O)C2CCN([C@H]3C[C@@H](COc4nc(N5CC6CCC(C5)N6)c5cnc(-c6cccc7cccc(Cl)c67)c(F)c5n4)N(C)C3)CC2)C(C)(C)C)cc1` [Compound 26, 1-((3S,5S)-5-(((4-(3,8-diazabicyclo[3.2.1]octan-3-yl)-7-(8-chloronaphthalen-1-yl)-8-fluoropyrido[4,3-d]pyrimidin-2-yl)oxy)methyl)-1-methylpyrrolidin-3-yl)-N-(4-(((S)-1-((2S,4R)-4-hydroxy-2-((4-(4-methylthiazol-5-yl)benzyl)carbamoyl)pyrrolidin-1-yl)-3,3-dimethyl-1-oxobutan-2-yl)amino)-4-oxobutyl)piperidine-4-carboxamide], the pIC50 was more than 7.00 against KRAS(G12D)/SOS1, less than 6.00 in assay [1] and less than 6.00 in assay [2]. For the same compound, the GI50 in assay [3] was more than 1000 nM.

Turning to `C#Cc1cccc2cccc(-c3ncc4c(N5CC6CCC(C5)N6)nc(OCC5(CN6CCN(Cc7ccc8c(c7)CN(C7CCC(=O)NC7=O)C8=O)CC6)CC5)nc4c3F)c12` (centres unmarked) [Compound 31, 3-(5-((4-((1-(((4-(3,8-diazabicyclo[3.2.1]octan-3-yl)-7-(8-ethynylnaphthalen-1-yl)-8-fluoropyrido[4,3-d]pyrimidin-2-yl)oxy)methyl)cyclopropyl)methyl)piperazin-1-yl)methyl)-1-oxoisoindolin-2-yl)piperidine-2,6-dione formate], the results for the negative logarithm of the IC50 (pIC50) (at KRAS(G12D)/SOS1; in assay [1]; in assay [2]) were more than 7.00, less than 6.00 and less than 6.00, respectively. In addition, in assay [3], the GI50 is more than 1000 nM.

As to `C#Cc1cccc2cccc(-c3ncc4c(N5CC6CCC(C5)N6)nc(OCC5(CN6CCN(C(=O)C7CCN(c8ccc9c(c8)C(=O)N(C8CCC(=O)NC8=O)C9=O)CC7)CC6)CC5)nc4c3F)c12` (centres unmarked) [Compound 30, 5-(4-(4-((1-(((4-(3,8-diazabicyclo[3.2.1]octan-3-yl)-7-(8-ethynylnaphthalen-1-yl)-8-fluoropyrido[4,3-d]pyrimidin-2-yl)oxy)methyl)cyclopropyl)methyl)piperazine-1-carbonyl)piperidin-1-yl)-2-(2,6-dioxopiperidin-3-yl)isoindoline-1,3-dione formate], the pIC50 is more than 7.00 at KRAS(G12D)/SOS1, less than 6.00 in assay [1] and less than 6.00 in assay [2]. The GI50 in assay [3] was more than 1000 nM.

On to `C#Cc1cccc2cccc(-c3ncc4c(N5CC6CCC(C5)N6)nc(OCCN5CCN(Cc6ccc7c(c6)C(=O)N(C6CCC(=O)NC6=O)C7=O)CC5)nc4c3F)c12` (centres unmarked) [Compound 2, 5-((4-(2-((4-(3,8-diazabicyclo[3.2.1]octan-3-yl)-7-(8-ethynylnaphthalen-1-yl)-8-fluoropyrido[4,3-d]pyrimidin-2-yl)oxy)ethyl)piperazin-1-yl)methyl)-2-(2,6-dioxopiperidin-3-yl)isoindoline-1,3-dione hydrochloride], for which the negative-log IC50 (pIC50) against KRAS(G12D)/SOS1 is more than 7.00; in assay [1], less than 6.00; in assay [2], less than 6.00. Also, the GI50 in assay [3] was more than 1000 nM.

Turning to `C#Cc1cccc2cccc(-c3ncc4c(N5CC6CCC(C5)N6)nc(OC[C@@H]5C[C@H](N6CCN(C(=O)C7CCN(c8ccc9c(c8)C(=O)N(C8CCC(=O)NC8=O)C9=O)CC7)CC6)CN5C)nc4c3F)c12` (stereo partly drawn) [Compound 8, 5-(4-(4-((3S,5S)-5-(((4-(3,8-diazabicyclo[3.2.1]octan-3-yl)-7-(8-ethynylnaphthalen-1-yl)-8-fluoropyrido[4,3-d]pyrimidin-2-yl)oxy)methyl)-1-methylpyrrolidin-3-yl)piperazine-1-carbonyl)piperidin-1-yl)-2-(2,6-dioxopiperidin-3-yl)isoindoline-1,3-dione hydrochloride], the pIC50 on KRAS(G12D)/SOS1 was more than 7.00; in assay [1], less than 6.00; in assay [2] it was less than 6.00. Further, the GI50 in assay [3] was more than 1000 nM.

For `C#Cc1cccc2cccc(-c3ncc4c(N5CC6CCC(C5)N6)nc(OC[C@@H]5CC[C@H](CN6CCN(CC7CCN(c8cccc9c8C(=O)N(C8CCC(=O)NC8=O)C9=O)CC7)CC6)N5C)nc4c3F)c12` (stereo partly drawn) [Compound 14, 4-(4-((4-(((2R,5S)-5-(((4-(3,8-diazabicyclo[3.2.1]octan-3-yl)-7-(8-ethynylnaphthalen-1-yl)-8-fluoropyrido[4,3-d]pyrimidin-2-yl)oxy)methyl)-1-methylpyrrolidin-2-yl)methyl)piperazin-1-yl)methyl)piperidin-1-yl)-2-(2,6-dioxopiperidin-3-yl)isoindoline-1,3-dione], the negative logarithm of the IC50 (pIC50) was more than 7.00 on KRAS(G12D)/SOS1, 6.00 to 7.00 in assay [1] and less than 6.00 in assay [2]. For the same compound, the GI50 in assay [3] lay within 100 to 1000 nM.

Take `Cc1ncsc1-c1ccc(CNC(=O)[C@@H]2C[C@@H](O)CN2C(=O)[C@@H](NC(=O)CCNC(=O)C2CCN([C@H]3C[C@@H](COc4nc(N5CC6CCC(C5)N6)c5cnc(-c6cccc7cccc(Cl)c67)c(F)c5n4)N(C)C3)CC2)C(C)(C)C)cc1` [Compound 27, 1-((3S,5S)-5-(((4-(3,8-diazabicyclo[3.2.1]octan-3-yl)-7-(8-chloronaphthalen-1-yl)-8-fluoropyrido[4,3-d]pyrimidin-2-yl)oxy)methyl)-1-methylpyrrolidin-3-yl)-N-(3-(((S)-1-((2S,4R)-4-hydroxy-2-((4-(4-methylthiazol-5-yl)benzyl)carbamoyl)pyrrolidin-1-yl)-3,3-dimethyl-1-oxobutan-2-yl)amino)-3-oxopropyl)piperidine-4-carboxamide formate]: the negative-log IC50 (pIC50) is 6.00 to 7.00 on KRAS(G12D)/SOS1, less than 6.00 in assay [1] and less than 6.00 in assay [2]. In assay [3], the GI50 was more than 1000 nM.

As for `C#Cc1cccc2cccc(-c3ncc4c(N5CC6CCC(C5)N6)nc(OC[C@@H]5C[C@H](N6CCN(CC7CCN(c8ccc9c(c8)C(=O)N(C8CCC(=O)NC8=O)C9=O)CC7)CC6)CN5C)nc4c3F)c12` (stereo partly drawn) [Compound 5, 5-(4-((4-((3S,5S)-5-(((4-(3,8-diazabicyclo[3.2.1]octan-3-yl)-7-(8-ethynylnaphthalen-1-yl)-8-fluoropyrido[4,3-d]pyrimidin-2-yl)oxy)methyl)-1-methylpyrrolidin-3-yl)piperazin-1-yl)methyl)piperidin-1-yl)-2-(2,6-dioxopiperidin-3-yl)isoindoline-1,3-dione hydrochloride], the pIC50 against KRAS(G12D)/SOS1 is more than 7.00; in assay [1], less than 6.00; in assay [2], less than 6.00. Further, the GI50 in assay [3] lay in the range of 100 to 1000 nM.
